Test results published in the supplement of paper PMC10307832.

Tests used:
Test in all cases: relative viability (nuclei count vs DMSO), 5 days (fraction); higher = more cells survive
[1] = compound: CC1=C(CC(=O)O)c2cc(F)ccc2/C1=C\c1ccc([S+](C)[O-])cc1 [Sulindac] + COc1cc2c(Oc3ccc(NC(=O)C4(C(=O)Nc5ccc(F)cc5)CC4)cc3F)ccnc2cc1OCCCN1CCOCC1 [Foretinib] (partner 0.25 µM)
How it was run: (§1)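 Medians of duplicate plates are given as relative viability. That measure is the nuclei count in treated wells divided by the count in vehicle wells. Counts were taken on 4× images of lung cancer cell lines in 1536-well plates, 5 days after pin-tool dosing the day after seeding with one drug alone or a fixed anchor-drug dose plus five library-drug doses (not always all listed) in √10 steps.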

[2] = compound: CC1=C(CC(=O)O)c2cc(F)ccc2/C1=C\c1ccc([S+](C)[O-])cc1 [Sulindac] + COc1cccc2cc(-c3nc([C@H]4CC[C@H](C(=O)O)CC4)n4ncnc(N)c34)[nH]c12 [OSI-027] (partner 0.5 µM)
How it was run: as §1

[3] = compound: O=c1[nH]cc(F)c(=O)[nH]1 [5-Fluorouracil] + C[C@]1(O)C[C@@H](c2nc(-c3ccc4ccc(-c5ccccc5)nc4c3)c3c(N)nccn32)C1 [Linsitinib] (partner 1 µM)
How it was run: as §1

[4] = compound: CC1=C(CC(=O)O)c2cc(F)ccc2/C1=C\c1ccc([S+](C)[O-])cc1 [Sulindac] + CC(=O)Nc1cccc(-n2c(=O)n(C3CC3)c(=O)c3c(Nc4ccc(I)cc4F)n(C)c(=O)c(C)c32)c1 [Trametinib] (partner 0.02 µM)
How it was run: as §1

Row | Cell Line | relative viability ([1]; first compound 0.08 µM) | relative viability ([1]; first compound 0.253 µM) | relative viability ([1]; first compound 0.8 µM) | relative viability ([1]; first compound 2.53 µM) | relative viability ([1]; first compound 8 µM) | relative viability ([2]; first compound 0.08 µM) | relative viability ([2]; first compound 0.253 µM) | relative viability ([2]; first compound 0.8 µM) | relative viability ([2]; first compound 2.53 µM) | relative viability ([2]; first compound 8 µM) | relative viability ([3]; first compound 0.02 µM) | relative viability ([3]; first compound 0.2 µM) | relative viability ([3]; first compound 0.6325 µM) | relative viability ([3]; first compound 2 µM) | relative viability ([4]; first compound 0.08 µM) | relative viability ([4]; first compound 0.253 µM) | relative viability ([4]; first compound 0.8 µM) | relative viability ([4]; first compound 2.53 µM) | relative viability ([4]; first compound 8 µM)
1 | NCI-H2228 | 1.02 | 1.07 | 0.773 | 0.751 | 0.899 | 0.794 | 0.687 | 0.533 | 0.502 | 0.56 | 0.443 | 0.627 | 0.48 | 0.36 | 0.621 | 0.675 | 0.5 | 0.523 | 0.364
2 | NCI-H2347 | 1.08 | 0.562 | 0.645 | 1.26 | 0.807 | 0.398 | 0.363 | – | 0.301 | 0.511 | 0.997 | 0.748 | 0.467 | 0.411 | 0.279 | 0.272 | 0.297 | 0.258 | 0.271
3 | NCI-H2405 | 1.03 | 1.08 | 0.981 | 1.03 | 1.09 | 0.664 | 0.711 | 0.736 | 0.602 | 0.685 | 0.883 | 0.967 | 0.881 | 0.672 | 0.687 | 0.668 | 0.581 | 0.634 | 0.731
4 | NCI-H3122 | 1.06 | 0.936 | 1.01 | 1.01 | 0.981 | 1.07 | 1.02 | 0.864 | 0.937 | 1.13 | 1.09 | 0.799 | 0.415 | 0.223 | 0.222 | 0.243 | 0.203 | 0.214 | 0.267
5 | PC-3 [JPC-3] | 1.12 | 1.11 | 1.14 | 1.09 | 1.05 | 0.715 | 0.797 | 0.614 | 0.752 | 0.728 | 0.947 | 0.949 | 0.888 | 0.698 | 0.668 | 0.659 | 0.701 | 0.695 | 0.725
